Test results published in US8889713B1, “N-substituted tetrahydroisoquinoline benzamides/benzene sulfonamides as anti-cancer agents” (Florida A&M University, priority 2013, dated 2014).
Values after ≈ are worked out from the molar mass of the structure shown.

Tests used:
Type in all cases: cell-based
[1] = test system: MCF-7 estrogen receptor-positive breast cancer cells; assay: […]-GLO luminescent cell viability assay, MCF-7; settings: Homo sapiens, MCF7, MCF-7, 72 h at 37° C., 5000 cells/well
Experimental: (§1) All the compounds were tested in the three cell lines. Different concentrations of compounds, ranging from about 0.01 nM to about 100,000 nM were delivered to […] cells per well, which were then incubated for three days at 37° C., followed by CTG assay.
(§2) In this assay, the number of viable cells in culture is determined based on the quantification of ATP present, which signals the presence of metabolically active cells. Damaged cells are not detected as the ATP leaked from these cells is quickly consumed by ATPases that are also released upon damage). The amount of ATP is determined using a system based on luciferase and D-luciferin resulting in light generation.
(§3) The cell lines were plated in 13, 96 well plates at a density of 5000 cells/well in total volumes of 50 μL in phenol-red free medium and incubated for overnight.
(§4) 25 μL of 40 nM estradiol should be added to all appropriate wells on the plate. […] 25 μL of stocks (containing the compounds to be tested, DMSO and phenol-red free medium) were added to cells and medium already on plate. 50 μL of medium were added to media wells, and 50 μL of mix (contain 32 mL DMSO+768 mL phenol-red free medium) to all vehicle control wells.
(§5) Luminescence results were read on TriLux Luminometer. The luminescent signal is proportional to the number of active cells present in culture. […] As a consequence, the number of metabolically active cells can be directly derived from the luminescent signal using a specific calibration curve. Data were expressed as percentage of untreated control (i.e. treatment value-blank/vehicle value blank), mean±SE for three replications.

Ishikawa cells = assay: […]-GLO luminescent cell viability assay, Ishikawa; settings: Homo sapiens, 72 h at 37° C., 5000 cells/well
Experimental: as §1, §2, §3, §4, §5

[2] = test system: MDA-MB-231 estrogen receptor-negative breast cancer cell line; assay: […]-GLO luminescent cell viability assay, MDA-MB-231; settings: Homo sapiens, MDA-MB-231, 72 h at 37° C., 5000 cells/well
Experimental: as §1, §2, §3, §4, §5

| SMILES | IC50 [1] | IC50 (Ishikawa cells) | IC50 [2] |
| --- | --- | --- | --- |
| CCc1ccc(C(=O)NN2CCc3c(cccc3OC)C2)cc1 [Redda-EVK-I-062, 4-Ethyl-N-(5-methoxy-3,4-dihydroisoquinolin-2(1H)-yl)benzamide] | 7.38 µg/mL (≈ 23.8 µM) | 6.34 µg/mL (≈ 20.4 µM) | 10.5 µg/mL (≈ 33.7 µM) |
| CCc1ccc(C(=O)NN2CCc3ccc(OC)cc3C2)cc1 [Redda-EVK-I-074, 4-Ethyl-N-(7-methoxy-3,4-dihydroisoquinolin-2(1H)-yl)benzamide] | 0.25 µg/mL (≈ 0.805 µM) | 0.11 µg/mL (≈ 0.354 µM) | 0.23 µg/mL (≈ 0.741 µM) |
| CCc1ccc(C(=O)NN2CCc3c(Br)ccc(Br)c3C2)cc1 [Redda-EVK-I-079, N-(5,8-Dibromo-3,4-dihydroisoquinolin-2(1H)-yl)-4-ethylbenzamide] | 2.34 µg/mL (≈ 5.34 µM) | 0.84 µg/mL (≈ 1.92 µM) | 1.71 µg/mL (≈ 3.9 µM) |
| CCc1ccc(C(=O)NN2CCc3ccccc3C2)cc1 [Redda-GM-3-121, N-(3,4-Dihydroisoquinolin-2(1H)-yl)-4-ethylbenzamide] | 0.43 µg/mL (≈ 1.53 µM) | 0.01 µg/mL (≈ 0.0357 µM) | 0.37 µg/mL (≈ 1.32 µM) |
| CCCc1ccc(C(=O)NN2CCc3ccccc3C2)cc1 [Redda-GM-3-122, N-(3,4-Dihydroxyisoquinolin-2(1H)-yl)-4-propylbenzamide] | 3.71 µg/mL (≈ 12.6 µM) | 0.75 µg/mL (≈ 2.55 µM) | 3.26 µg/mL (≈ 11.1 µM) |
| O=C(NN1CCc2ccccc2C1)c1ccc(Br)cc1 [Redda-GM-3-135, 4-Bromo-N-(3,4-dihydroisoquinolin-2(1H)-yl)benzamide] | 0.7 µg/mL (≈ 2.11 µM) | 0.02 µg/mL (≈ 0.0604 µM) | 4.34 µg/mL (≈ 13.1 µM) |
| O=C(NN1CCc2ccccc2C1)c1ccc(C(F)(F)F)cc1 [Redda-GM-3-143, N-(3,4-Dihydroisoquinolin-2-(1H)-yl)-4-(trifluoromethyl)benzamide] | 3.15 µg/mL (≈ 9.83 µM) | 0.5 µg/mL (≈ 1.56 µM) | 4.85 µg/mL (≈ 15.1 µM) |
| CCCCc1ccc(C(=O)NN2CCc3ccccc3C2)cc1 [Redda-GM-3-156, 4-Butyl-N-(3,4-dihydrozyisoquinolin-2(1H)-yl)benzamide] | 3.05 µg/mL (≈ 9.89 µM) | 0.96 µg/mL (≈ 3.11 µM) | 7.03 µg/mL (≈ 22.8 µM) |
| O=C(NN1CCc2ccccc2C1)c1nc2ccccc2s1 [Redda-GM-3-177, N-(3,4-Dihydroisoquinolin-2-(1H)-yl)benzo[d]thiazole-2-carboxamide] | 15 µg/mL (≈ 48.5 µM) | 8.98 µg/mL (≈ 29 µM) | 13.1 µg/mL (≈ 42.4 µM) |
| CC(C)(C)c1ccc(C(=O)NN2CCc3ccc(O)cc3C2)cc1 [Redda-GM-4-40, 4-(tert-Butyl)-N-(7-hydroxy-3,4-dihydroisoquinolin-2(1H)-yl)benzamide] | 2.3 µg/mL (≈ 7.09 µM) | 0.95 µg/mL (≈ 2.93 µM) | 4.7 µg/mL (≈ 14.5 µM) |
| CCc1ccc(C(=O)NN2CCc3ccc(O)cc3C2)cc1 [Redda-GM-4-53, 4-Ethyl-N-(7-hydroxy-3,4-dihydroisoquinolin-2-(1H)-yl)benzamide] | 0.2 µg/mL (≈ 0.675 µM) | 0.08 µg/mL (≈ 0.27 µM) | 0.13 µg/mL (≈ 0.439 µM) |
| CCc1ccc(C(=O)NN2CCc3c(Br)cccc3C2)cc1 [Redda-GM-4-62, N-(5-Bromo-3,4-dihyroisoquinolin-2(1H)-yl)-4-ethylbenzamide] | 3.5 µg/mL (≈ 9.74 µM) | 1.15 µg/mL (≈ 3.2 µM) | 6.01 µg/mL (≈ 16.7 µM) |
